Measurements: patent US20250304547A1, “Sulfur-Containing Lipids” (NanoVation Therapeutics Inc., priority 2022, published 2025)

How the values were obtained:
FVII gene = details: mice, siRNA formulations of the amino lipid; cited from earlier work
[1] = Encapsulation efficiency, Quant-iT RiboGreen assay; format: physicochemical; details: firefly luciferase mRNA LNP, ionizable lipid/DSPC/chol/PEG-DMG 50/10/38.5/1.5 mol %, N/P 6
Experimental: (§1) Lipids used in the formulation, nor-MC3, 4, DSPC, cholesterol, and PEG-DMG, were dissolved in ethanol at the appropriate ratios to a final concentration of 10 mM total lipid. Nucleic acid (mRNA) was dissolved in an appropriate buffer such as 25 mM sodium acetate pH 4 or sodium citrate pH 4 to a concentration necessary to achieve the appropriate amine-to-phosphate ratios. The aqueous and organic solutions were mixed using a rapid-mixing device as described in Kulkami et al., 2018, ACS Nano, 12:4787 and Kulkami et al., 2017, Nanoscale, 36:133347 (each incorporated herein by reference) at a flow rate ratio of 3:1 (v/v; respectively) and a total flow rate of 20 mL/min. The resultant mixture was dialyzed directly against 1000-fold volume of PBS pH 7.4. All formulations were concentrated using an Amicon™ centrifugal filter unit and analysed using the methods described below.
Particle size analysis of LNPs in PBS was carried out using backscatter measurements of dynamic light scattering with a Malvern Zetasizer™ (Worcestershire, UK). […] Total lipid concentrations were determined by extrapolation from the cholesterol content, which was measured using the Cholesterol E-Total Cholesterol Assay (Wako Diagnostics, Richmond, VA) as per the manufacturer's recommendations. Encapsulation efficiency of the formulations was determined using the Quant-iT RiboGreen™ Assay kit (Invitrogen, Waltham, MA). […]

spleen = assay: In vivo transfection of firefly luciferase mRNA-LNP, luciferase assay of spleen; details: CD-1 mice, intravenous, 4 hours post-administration, mRNA LNP 50/10/38.5/1.5 mol %, N/P 6
Experimental: as §1
(§2) LNP-mRNA encoding firefly luciferase were injected intravenously (tail-vein) into 6-8 week old CD-1 mice. Four hours following injection, the animals were euthanized and the liver and spleen were isolated. Tissue was homogenized in Glo Lysis™ buffer and a luciferase assay performed using the Steady Glo Luciferase™ assay kit (as per manufacturers recommendations).

liver = assay: In vivo transfection of firefly luciferase mRNA-LNP, luciferase assay of liver; details: CD-1 mice, intravenous, 4 hours post-administration, mRNA LNP 50/10/38.5/1.5 mol %, N/P 6
Experimental: as §1, §2

[2] = Particle size analysis of LNPs by dynamic light scattering; format: physicochemical; details: firefly luciferase mRNA LNP, ionizable lipid/DSPC/chol/PEG-DMG 50/10/38.5/1.5 mol %; for polydispersity index (PDI): N/P 6; for particle size (number-weighted average diameter): N/P 6, in PBS
Experimental: as §1
Particle size analysis of LNPs in PBS was carried out using backscatter measurements of dynamic light scattering with a Malvern Zetasizer™ (Worcestershire, UK). The reported particle sizes correspond to the number-weighted average diameters (nm). Total lipid concentrations were determined by extrapolation from the cholesterol content, which was measured using the Cholesterol E-Total Cholesterol Assay (Wako Diagnostics, Richmond, VA) as per the manufacturer's recommendations. Encapsulation efficiency of the formulations was determined using the Quant-iT RiboGreen™ Assay kit (Invitrogen, Waltham, MA). Briefly, the total mRNA content in solution was measured by lysing lipid nanoparticles in a solution of Tris-EDTA (TE) containing 2% Triton Tx-100, and free […] in solution (external to LNP) was measured based on the RiboGreen™ fluorescence in a TE solution without Triton. Total mRNA content in the formulation was determined using a modified Bligh-Dyer extraction procedure. Briefly, LNP formulations containing mRNA were dissolved in a mixture of chloroform, methanol, and PBS that results in a single phase and the absorbance at 260 nm measured using a spectrophotometer.

entrapment / encapsulation efficiency [1] | polydispersity index (PDI) [2] | particle size (number-weighted average diameter) [2] | Molecule | ED50 for FVII gene silencing (FVII gene) | luminescence intensity/mg of spleen, relative to the nor-MC3 formulation (spleen) | luminescence intensity/mg of liver, relative to the nor-MC3 formulation (liver)
 |  |  | CCCCC/C=C\C/C=C\CCCCCCCCC1(CCCCCCCC/C=C\C/C=C\CCCCC)OCC(CCN(C)C)O1 (stereo not drawn) [KC2] | 0.1 mg/kg |  | 
~90% | about 0.090 | about 50.0 nm | CCCCCSCSCCCCCCCCC1(CCCCCCCCSCSCCCCC)OCC(CCN(C)C)O1 (stereo not drawn) [Lipid 4, 2-(2,2-bis(8-(((pentylthio)methyl)thio)octyl)-1,3-dioxolan-4-yl)-N,N-dimethyl-ethan-1-amine] |  | higher luminescence intensity in the spleen | trend was reversed in the liver
94% | about 0.075 | about 39.9 nm | nor-MC3 [reference compound] |  |  | 
